Patent publication US8071838B2, “Targeted and regional cellular ablation in zebrafish” (Washington University in St. Louis, priority 2003, dated 2011)

Key:
[1] = target: nitroreductase (Escherichia coli, UniProt P38489); details: substrate for nitroreductase; due to permeability of the cytotoxic metabolite (Bridgewater et al., 1997; Wilson et al., 2002); cited from earlier work
[2] = test system: zebrafish; details: in vivo; cited from earlier work
[3] = test system: unc-CFP-Nitro expressing cells; assay: nitroreductase-based pro-drug conversion and cellular ablation in transient transgenic zebrafish embryos; assay type: in vivo; details: metronidazole 10 mM, 5 mM, 2.5 mM in embryo medium; treated from 62 hpf, imaged at 118 hpf; untreated embryos keep both reporters
Protocol: In order to determine the efficacy of nitroreductase-based pro-drug conversion and subsequent cellular ablation in transient transgenic zebrafish the following experiment was performed: Male and female zebrafish from a ‘transparent’ strain (e.g., harboring the roy mutation) were allowed to mate over egg collection chambers at light onset. Fertilized eggs were collected every 15 minutes and placed in petri dishes containing embryo medium (0.3X Danieau's solution containing 100 units/ml penicillin and 100 μg/ml streptomycin). Eggs were dispensed into a silicone chambers and oriented such that the cell side was facing up. For injections, DNA plasmids were diluted into 1X Danieau's solution to a final concentration of 10 ng/μl. DNA plasmids used for this experiment included: 1) An alpha-1-tubulin promoter driving expression of a Gal4/VP 16 “driver” protein (α-1-tub::Gal4/VP16); 2) A UAS regulated red control fluorescent reporter protein (UAS::DsRed) and; 3) A UAS regulated cyan fluorescent reporter protein (unc-CFP) fused to nitroreductase (UAS::unc-CFP-Nitro, see FIG. 2 and FIG. 3). […] At 28 hpf, injected embryos were screened for equivalent expression of the DsRed reporter (control cells) and the unc-CFP-Nitro ablation/reporter (targeted cells) using standard fluorescence microscopy. […]

nitroreductase, sequence (P38489 whole entry): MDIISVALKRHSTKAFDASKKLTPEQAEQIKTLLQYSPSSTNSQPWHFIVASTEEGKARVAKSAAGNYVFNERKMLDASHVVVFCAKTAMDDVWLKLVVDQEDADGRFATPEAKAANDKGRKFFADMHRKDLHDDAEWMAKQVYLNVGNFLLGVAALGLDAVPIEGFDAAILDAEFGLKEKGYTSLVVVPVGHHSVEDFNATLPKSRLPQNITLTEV

NC(=O)c1cc(N2CC2)c([N+](=O)[O-])cc1[N+](=O)[O-] [CE 1954, 5-(aziridin-1-yl)-2,4-dinitrobenzamide]
bystander effect [1]: specifically promote the bystander effect

Cc1ncc([N+](=O)[O-])n1CCO [metronidazole]
general toxicity [2]: no general toxicity
ablation of reporter-expressing cells (confocal imaging of unc-CFP-Nitro vs DsRed control reporter) [3]: selective elimination of unc-CFP-Nitro expressing cells
